Entries after “also recorded” stand apart in the source; their conditions may differ.
Legend:
[1] = tested on: SARS-COV-2 (USA_WA1/2020 isolate) in VERO E6 cells; experiment: Real-Time Cell Analysis (RTCA) assay of SARS-COV-2 replication; assay type: cell-based
[2] = tested on: HepG2 cells; experiment: HepG2 cytotoxicity assay (XTT); settings: 100 μM
[3] = target: SARS-CoV-2 main protease (M^pro) (Severe acute respiratory syndrome coronavirus 2, UniProt P0DTD1); experiment: Protein thermal shift stability assay (SYPRO Orange); assay type: binding
[4] = Metabolic stability in human liver microsomes; assay type: in vitro ADME
Protocol: (§1) The samples were collected at specific time-points 0, 30, and 60 min in duplicate. The reactions were terminated by adding an equivalent volume of ice-cold methanol and vortexed. […] Three μL of the supernatant was analyzed by UHPLC-Q Exactive Orbitrap MS (Thermo Fisher Scientific, USA) equipped with 50 mm×4.6 mm column (XDB C-18, Agilent Technologies, USA). The column temperature was maintained at 40° C. The flow rate was at 0.3 mL/min with a 30% mobile phase (acetonitrile containing 0.1% formic acid). Q Exactive MS was operated in positive mode with electrospray ionization. Ultra-pure nitrogen was applied as the sheath (45 arbitrary unit), auxiliary (10 arbitrary unit), sweep (1.0 arbitrary unit) and the collision gas. […] MS data were acquired from 80 to 1,200 Da in profile mode.

[5] = tested on: HepG2 cells; experiment: HepG2 cell uptake assay; assay type: in vitro ADME; settings: 10 μM, 2 hours
Protocol: The HepG2 cells maintained in DMEM (containing 1 g/L glucose, 10% fetal bovine serum and 1% penicillin/streptomycin) were seeded in a 12-well plate (a final density of 5×10^5/well) for cell uptake assay and 96-well plate for cytotoxicity assay (a final density of 5×10^4/well). The plate was incubated at 37° C. for 24 h.
The cells in 12-well plate were treated with CDD-1713 or CDD-1976 (final concentration: 10 μM). The plate was incubated at 37° C. for another 2 hr. The medium in the plate was decanted and the cells were rinsed with 1 mL of 1×DPBS for three times. 0.5 mL of 0.25% Trypsin was added into each well and incubated for 3.5 min (at 37° C.). 1 mL of complete medium was added into each well to quench the reaction. After spinning at 350×g for 5 min, the cell pellet was reconstituted in MeOH/H2O (v/v 1/1) and CDD-1713 or CDD-1976 was extracted from 100 μL of the resulting mixture with 100 μL of ice-cold methanol. The mixtures were centrifuged at rcf 15,000 for 15 min. Three μL of the supernatant was analyzed by UHPLC-Q Exactive Orbitrap MS (Thermo Fisher Scientific, USA) equipped with 50 mm×4.6 mm column (XDB C-18, Agilent Technologies, USA). The column temperature was set at 40° C. Ultra-pure nitrogen was applied as the sheath (45 arbitrary unit), auxiliary (10 arbitrary unit), sweep (1.0 arbitrary unit) and the collision gas. […]

[6] = target: SARS-COV-2 M^pro (authentic N- and C-termini) (Severe acute respiratory syndrome coronavirus 2, UniProt P0DTD1); experiment: biochemical; assay type: biochemical
[7] = Plasma stability assay, mouse plasma; assay type: in vitro ADME; settings: 10 μM, 37° C., after 2 h incubation
Protocol: (§2) Compound CDD-1713 and CDD-1976 were incubated in human and mouse plasma respectively at a concentration of 10 μM in duplicate (n=2) at 37° C. At time-points of 0, 30, 60 and 120 min, 15 μL of sample were taken out and the reactions terminated by adding 75 μL of ice-cold methanol. The reaction mixtures were then vortexed for 30 sec and centrifuged at rcf 15,000 for 15 min. Following centrifugation, 3 μL of the supernatant was analyzed using UHPLC-Q Exactive Orbitrap MS. The percentage of test compound remaining at the individual time points relative to the 0 min sample was then determined.

[8] = Plasma stability assay, human plasma; assay type: in vitro ADME; settings: 10 μM, 37° C., after 2 h incubation
Protocol: as §2

[9] = Metabolic stability in mouse liver microsomes; assay type: in vitro ADME; settings: 0.5 mg protein/mL, 2.0 μM compound, 1.0 mM NADPH
Protocol: as §1

[10] = target: SARS-COV-2 M^pro-His6 (Severe acute respiratory syndrome coronavirus 2, UniProt P0DTD1); experiment: biochemical; assay type: biochemical; settings: 25 nM enzyme, 15 μM fluorescent peptide, Morrison equation; Inactive = less than 50% inhibition at 25 μM compound; read-out: M^pro-His Ki

## CN(C)C(=O)COc1ccc(-c2cccc3[nH]ncc23)cc1C=O [CDD-1976]
[1]; Severe acute respiratory syndrome coronavirus 2, Vero C1008, 75 h, read-out: IC50, inhibition of SARS-COV-2 induced cell death (RTCA)
  IC50: 2.5 µM
[1]; VERO E6 cells, 75 h
  prevention of SARS-COV-2 induced cell death (in words): reduced cell death in a dose-dependent manner
[2]
  cytotoxicity in HepG2 cells (in words): no obvious cytotoxicity
[3]
  stabilization of M^pro in thermal shift assay (in words): stabilized; also recorded: concentration-dependent stabilization; also recorded: most pronounced temperature shift
[4]; 0.5 mg protein/mL, 2.0 μM compound, 1.0 mM NADPH
  HLM t1/2 (half-life): 41.4
[4]; human, microsomes
  metabolic stability in human liver microsomes (in words): more stable
[5]
  cell permeability in HepG2 uptake assay (in words): moderate cell permeability
[6]
  M^pro inhibition (in words): better inhibition compared to CDD-1713
[6]; 25 nM enzyme, 15 μM fluorescent peptide, Morrison equation, Inactive = less than 50% inhibition at 25 μM compound, read-out: M^pro Ki
  Ki: 0.042 ± 0.005 µM
[7]
  compound remaining in mouse plasma: 80%
[8]
  compound remaining in human plasma: 80%
[9]
  MLM t1/2 (half-life): 10.2
[10]
  Ki: 0.037 ± 0.004 µM

From patent US20250276955A1, “CORONAVIRUS MAIN PROTEASE INHIBITORS AND METHODS USING SAME” (Baylor College of Medicine, priority 2021, published 2025)
